Experimental data from patent US20220089568A1 (Janssen Biotech, Inc., priority 2019, published 2022).

Legend:
human DHODH = molecular target: T1, human DHODH (Homo sapiens, UniProt Q02127); assay: DHODH Enzymatic Assay; type: biochemical; conditions: purified human DHODH; DCIP absorbance, end-point mode
T1 construct: purchased Proteros PR-0044
How it was run: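 Purified human DHODH activity read as absorbance of DCIP, the terminal electron acceptor, in […] pH 7.5, 150 mM NaCl, 0.5 mM EDTA, 0.1% Triton X-100. Reaction started with a substrate mix of 20 mM DHO, 5 mM CoQ6 and 1 mM DCIP in assay buffer.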

MOLM-13 cells = assay: MOLM-13 Cellular Assay; type: cell-based; conditions: Homo sapiens, 72 hours exposure, cell viability by CellTiter-Glo
Experimental: The day prior to assay set-up, cells were pelleted, resuspended in fresh media, counted, and cells were plated at 0.4×10^6 cell/mL in a T150 flask. […] Cells were exposed to different concentrations of test compounds at 37° C., 5% CO2 for 72 hours immediately after seeding.

T1 sequence (Q02127 whole entry): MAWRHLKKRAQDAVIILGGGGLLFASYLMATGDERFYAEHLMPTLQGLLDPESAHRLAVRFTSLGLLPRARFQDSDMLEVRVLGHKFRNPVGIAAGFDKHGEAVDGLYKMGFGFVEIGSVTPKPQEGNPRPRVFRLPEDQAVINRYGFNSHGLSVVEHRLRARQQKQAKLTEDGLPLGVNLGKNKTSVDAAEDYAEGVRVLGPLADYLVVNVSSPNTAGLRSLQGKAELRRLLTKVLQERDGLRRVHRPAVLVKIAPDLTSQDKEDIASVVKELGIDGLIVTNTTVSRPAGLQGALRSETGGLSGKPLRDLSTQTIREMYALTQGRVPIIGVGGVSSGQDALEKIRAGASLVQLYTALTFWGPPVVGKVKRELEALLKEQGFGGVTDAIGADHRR

| Compound | EC50 (human DHODH) [nM] | EC50 (MOLM-13 cells) [nM] |
| --- | --- | --- |
| CCn1c(CO)nn(-c2nc(O[C@@H](C)C(F)(F)F)c(C(=O)Nc3c(Cl)n[nH]c3Cl)cc2F)c1=O [Example 123, N-(3,5-Dichloro-1H-pyrazol-4-yl)-6-[4-ethyl-3-(hydroxymethyl)-5-oxo-1,2,4-triazol-1-yl]-5-fluoro-2-[(1S)-2,2,2-trifluoro-1-methyl-ethoxy]pyridine-3-carboxamide] | 2.46 | 0.208 |
| CCn1c(CO)nn(-c2nc(O[C@@H](C)C(F)(F)F)c(C(=O)Nc3c(C(F)F)n[nH]c3C)cc2F)c1=O [Example 124, N-[3-(Difluoromethyl)-5-methyl-1H-pyrazol-4-yl]-6-[4-ethyl-3-(hydroxymethyl)-5-oxo-1,2,4-triazol-1-yl]-5-fluoro-2-[(1S)-2,2,2-trifluoro-1-methyl-ethoxy]pyridine-3-carboxamide] | 3.31 | 0.371 |
| CCn1c(CO)nn(-c2nc(O[C@@H](C)C(F)(F)F)c(C(=O)Nc3c(F)ccnc3OC)cc2F)c1=O [Example 125, 6-[4-Ethyl-3-(hydroxymethyl)-5-oxo-1,2,4-triazol-1-yl]-5-fluoro-N-(4-fluoro-2-methoxy-3-pyridyl)-2-[(1S)-2,2,2-trifluoro-1-methyl-ethoxy]pyridine-3-carboxamide] | 3.69 | 1.11 |
| CCn1c(CO)nn(-c2nc(O[C@@H](C)C(F)(F)F)c(C(=O)Nc3c(Cl)ccnc3OC)cc2F)c1=O [Example 126, N-(4-Chloro-2-methoxy-3-pyridyl)-6-[4-ethyl-3-(hydroxymethyl)-5-oxo-1,2,4-triazol-1-yl]-5-fluoro-2-[(1S)-2,2,2-trifluoro-1-methyl-ethoxy]pyridine-3-carboxamide] | 0.312 | 0.328 |
| CCn1c(C(C)(C)O)nn(-c2nc(O[C@@H](C)C(F)(F)F)c(C(=O)Nc3c(C)n[nH]c3C(F)(F)F)cc2F)c1=O [Example 128, 6-[4-Ethyl-3-(1-hydroxy-1-methyl-ethyl)-5-oxo-1,2,4-triazol-1-yl]-5-fluoro-N-[3-methyl-5-(trifluoromethyl)-1H-pyrazol-4-yl]-2-[(1S)-2,2,2-trifluoro-1-methyl-ethoxy]pyridine-3-carboxamide] | 9.55 | 4.46 |
